Measurements taken from US12527763B2, “Pyrrole amide compound and use thereof” (SUNSHINE LAKE PHARMA CO., LTD., priority 2019, dated 2026).
In brackets after ≈: the same amount, converted by molar mass. Counter-ions that a name gives are not always drawn. Like-named read-outs stand apart in the source and are kept apart here. Values belong to the compound of their own block, whether it stands above or below them.

Columns and labels:
[1] = Pharmacokinetic experiment in Beagle dogs; format: in vivo; conditions: oral, 5.0 mg/kg; for AUC(0-inf) / Cmax / Tmax / half-life: dog, plasma
Description: Beagle dogs 8-10 kg were randomly divided into two groups, and the test compound was administered orally at a dosage of 5.0 mg/kg; after administration, blood was collected at the time points of 0.0833, 0.25, 0.5, 1.0, 2.0, 4.0, 6.0, 8.0, 24.0, 32.0 and 48.0 hours. A standard curve was established within a suitable range according to the sample concentration, and AB SCIEX API4000 LC-MS/MS was used to determine the concentration of the test compounds in the plasma sample in the MRM mode. According to the drug concentration-time curve, the WinNonLin 6.3 software non-compartmental model method was used to calculate the pharmacokinetic parameters.

[2] = test system: Balb/c 3T3 fibroblast; conditions: PMDA Examination Report (Jan. 8, 2019); cited from earlier work
[3] = Pharmacokinetic experiment in cynomolgus monkey; format: in vivo, cynomolgus monkeys; conditions: oral, 3 mg/kg; for AUC(0-inf) / Cmax / Tmax / half-life: cynomolgus monkey, plasma, female cynomolgus monkeys
Description: Three female cynomolgus monkeys of 3.0-3.5 kg were taken and orally administered with the test compound at a dosage of 3 mg/kg; after the administration, blood was collected at the time points of 0.083, 0.25, 0.5, 1, 2, 4, 6, 8, 24, 32 and 48 hours. A standard curve was established within an appropriate range based on the sample concentration, and AB SCIEX API 5000 LC-MS/MS was used to determine the concentration of the test compounds in the plasma sample in the MRM mode. According to the drug concentration-time curve, WinNnonlin 6.3 software non-compartmental model method was used to calculate the pharmacokinetic parameters.

[4] = test system: Balb/c 3T3 cells; conditions: mouse, 1 h
Description: (§1) Preparation of the test compound solution: The test compound was dissolved in dimethyl sulfoxide to obtain a 10 mg/mL solution, and then diluted with dimethyl sulfoxide in multiples of 2.15 times into solutions of different concentrations.
(§2) Balb/c 3T3 cells were seeded on 96-well culture plates. After 24 hours of culture, the culture medium was discarded, different concentrations of test compounds or balanced salts (HBSS) solution containing positive control substance (chlorpromazine hydrochloride, CPZ) and vehicle control substance were added. Two culture plates of each concentration of the test compound and the positive control substance are a light (+UV) plate and a non-light (-UV) plate, respectively. After incubating for 1 hour, the light plate was placed under UVA with a light intensity of about 1.7 mw/cm2 until the light dose reached 5.0 J/cm2. The non-light plate was placed at room temperature and protected from light for the same time. After the light was over, the culture medium was replaced with fresh one and continuously cultured for 18-22 hours. About 3 hours before the culture was complete, the culture medium was replaced with a medium containing neutral red and serum-free. After incubation, neutral red eluent was added, the absorbance value (OD540) of each well at 540 nm was measured after shaking. The cell 50% inhibitory concentration (IC50), light stimulating factor (PIF) and/or average light effect (MPE) were calculated. The phototoxicity of the compound was determined according to the following criteria: PIF>5 is judged as positive for phototoxicity; 5>PIF>2 is judged as possible phototoxicity; 2>PIF is judged as no phototoxicity.

[5] = test system: Balb/c 3T3 cells; assay: In vitro 3T3 cell neutral red uptake phototoxicity test; conditions: for IC50: Mus musculus
Description: as §1, §2

[6] = target: mineralocorticoid receptor (MR) (Homo sapiens (Human), UniProt P08235); assay: In vitro activity test: MR LBD-Gal4 DBD dual luciferase reporter gene assay in HEK293 cells with aldosterone at EC80; format: cell-based; conditions: antagonism of aldosterone at EC80, 18 hours
Chain of mineralocorticoid receptor (MR) (P08235 726-964, species assumed): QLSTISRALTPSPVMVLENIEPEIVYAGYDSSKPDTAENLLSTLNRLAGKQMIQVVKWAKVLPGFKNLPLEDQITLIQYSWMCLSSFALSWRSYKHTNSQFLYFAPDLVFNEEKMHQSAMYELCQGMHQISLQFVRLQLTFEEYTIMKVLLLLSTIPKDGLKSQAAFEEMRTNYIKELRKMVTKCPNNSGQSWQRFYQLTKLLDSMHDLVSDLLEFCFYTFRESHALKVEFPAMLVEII
Text: Using the characteristics of luciferase binding to the substrate to generate a chemiluminescence reaction, the plasmid containing mineralocorticoid receptor (MR) ligand binding domain (LBD) fused with Gal4 DNA binding domain (DBD) and the firefly luciferase reporter gene plasmid under the control of Gal4 UAS (upstream activation sequence) are transfected into human embryonic kidney cells (HEK293). The changes in mineralocorticoid receptor activity before and after stimulation or the influence of different stimuli on mineralocorticoid receptor activity are judged by the level of firefly luciferase activity. At the same time, in order to reduce the impact of internal change factors on the accuracy of the experiment, the plasmid with Renilla luciferase gene is used as a control plasmid to transfect cells to provide an internal control for transcriptional activity, so that the test results are not interfered by changes in experimental conditions.
• 1) The HEK293 cells were collected after trypsinization and the cell density was adjusted to 500,000 cells/mL; • 2) FuGENE HD transfection reagent was added to the cell suspension; • 3) The above cell suspension was inoculated into a 96-well cell culture plate of 100 μL/well, and incubated for 24 hours at 37° C., 5% CO2; • 4) A series of concentrations of the test compound solution and EC80 concentration of agonist aldosterone were added to each well and incubated for 18 hours; • 5) Firefly and Renilla luciferase signals were detected by Promega dual luciferase reporter gene test system. Result Processing: • 1) After obtaining the firefly luciferase signal (F) and the Renilla luciferase signal (R), the Renilla luciferase signal was used for correction, that is, the F/R value was used for subsequent calculation of inhibition rate; • 2)% inhibition rate=(Max−X)/(Max−Min)×100%, wherein Max is the F/R value of the positive control well, Min is the F/R value of the negative control well, and X is the test compound well of different concentrations F/R value; • 3) IC50 was calculated by GraphPrism 5.0 mapping software.

[7] = BALB/c3T3, light or radiation study, read-out: IC50 (+UV)
[8] = BALB/c3T3, read-out: IC50 (−UV)

AUC(0-inf) [1]: 45600 ng·h/mL
Cmax [1]: 1580 ng/mL
Tmax [1]: 2.33 h
half-life [1]: 20.3 h
AUC(0-inf) [3]: 8990 ng·h/mL
Cmax [3]: 741 ng/mL
Tmax [3]: 1.67 h
half-life [3]: 9.63 h
SMILES: Cc1c(C(=O)Nc2ccc(S(C)(=O)=O)cc2)cn(CCO)c1-c1ccccc1C(F)(F)F (atropisomer, axis not shown) [CS-3150, Esaxerenone, reference compound]
light stimulus factor PIF [2]: > 17
phototoxicity (in words) [2]: phototoxic

MPE (average light effect) [4]: 0.368
PIF (light stimulating factor) [4]: 37.381
SMILES: CN(C)CCCN1c2ccccc2Sc2ccc(Cl)cc21 [CPZ, chlorpromazine hydrochloride, reference compound]
IC50 [5, 7]: 0.982 µg/mL
IC50 [5, 8]: 36.7 µg/mL

IC50 [6]: 6.93 nM
SMILES: Cc1c(C(=O)Nc2ccc(S(C)(=O)=O)c(F)c2)cn(CCO)c1-c1ccccc1C(F)(F)F [Example 1, N-(3-Fluoro-4-(methylsulfonyl)phenyl)-1-(2-hydroxyethyl)-4-methyl-5-(2-(trifluoromethyl)phenyl)-1H-pyrrole-3-carboxamide]

AUC(0-inf) [1]: 145000 ng·h/mL
Cmax [1]: 4690 ng/mL
Tmax [1]: 3.33 h
half-life [1]: 25.3 h
IC50 [6]: 3.4 nM
AUC(0-inf) [3]: 22000 ng·h/mL
Cmax [3]: 1040 ng/mL
Tmax [3]: 5.3 h
half-life [3]: 13 h
SMILES: Cc1c(C(=O)Nc2ccc([S@SP2](C)(=O)=O)c(F)c2)cn(CCO)c1-c1ccccc1C(F)(F)F [Example 2, (S)-1-(2-Hydroxyethyl)-4-methyl-N-(3-fluoro-4-(methylsulfonyl)phenyl)-5-(2-(trifluoromethyl)phenyl)-1H-pyrrole-3-carboxamide]
pharmacokinetic properties compared with the control compound CS-3150 [1]: higher exposure, blood concentration and long half-life
pharmacokinetic properties compared to the control compound CS-3150 ([3]; cynomolgus monkeys): higher exposure, blood concentration and bioavailability
MPE (average light effect) ([5]; Balb/c 3T3 cells, +UV vs −UV): −0.044
PIF (light stimulating factor) ([5]; Balb/c 3T3 cells, +UV vs −UV): 1.289
IC50 [5, 7]: 49.6 µg/mL (≈ 102 µM)
IC50 [5, 8]: 63.8 µg/mL (≈ 132 µM)
in vitro phototoxicity (in words) ([5]; conclusion from Table 6): no in vitro phototoxicity
Phototoxicity ([5]; judged from PIF): − (2>PIF is judged as no phototoxicity)

IC50 [6]: 47.6 nM
SMILES: Cc1c(C(=O)Nc2ccc(S(C)(=O)=O)c(F)c2)cn(CC2(O)CC2)c1-c1ccccc1C(F)(F)F [Example 3, N-(3-Fluoro-4-(methylsulfonyl)phenyl)-1-((1-hydroxycyclopropyl)methyl)-4-methyl-5-(2-(trifluoromethyl)phenyl)-1H-pyrrole-3-carboxamide]

IC50 [6]: 21.5 nM
SMILES: Cc1c(C(=O)Nc2ccc(S(C)(=O)=O)c(F)c2)cn(CC2CCO2)c1-c1ccccc1C(F)(F)F (stereo not shown) [Example 5, N-(3-Fluoro-4-(methylsulfonyl)phenyl)-4-methyl-1-(oxetan-2-ylmethyl)-5-(2-(trifluoromethyl)phenyl)-1H-pyrrole-3-carboxamide]

IC50 [6]: 30.3 nM
SMILES: Cc1c(C(=O)Nc2ccc(S(C)(=O)=O)c(F)c2)cn(C2COC2)c1-c1ccccc1C(F)(F)F [Example 6, N-(3-Fluoro-4-(methylsulfonyl)phenyl)-4-methyl-1-(oxetan-3-yl)-5-(2-(trifluoromethyl)phenyl)-1H-pyrrole-3-carboxamide]

IC50 [6]: 84.5 nM
SMILES: Cc1c(C(=O)Nc2ccc(S(C)(=O)=O)c(F)c2)cn(-c2cccnc2)c1-c1ccccc1C(F)(F)F [Example 7, N-(3-Fluoro-4-(methylsulfonyl)phenyl)-4-methyl-1-(pyridin-3-yl)-5-(2-(trifluoromethyl)phenyl)-1H-pyrrole-3-carboxamide]

IC50 [6]: 82.2 nM
SMILES: Cc1c(C(=O)Nc2cc(F)c3c(c2)sc(=O)n3C)cn(CCO)c1-c1ccccc1C(F)(F)F [Example 8, N-(4-Fluoro-3-methyl-2-oxo-2,3-dihydrobenzo[d]thiazol-6-yl)-1-(2-hydroxyethyl)-4-methyl-5-(2-(trifluoromethyl)phenyl)-1H-pyrrole-3-carboxamide]
